# Results as given in patent publication US20230381173A1, “METHODS AND PHARMACEUTICAL COMPOSITION FOR TREATING DISEASES” (TONGLI BIOMEDICAL CO. LTD., priority 2021, published 2023).
# What was measured:
# Dactylogyrus vastator = assay: Bath treatment of Dactylogyrus infected goldfish; type: in vivo, goldfish (Carassius auratus); conditions: bath 1.5 mg/L, 48 hours
# Method: (R)-praziquantel Form B was tested for use in treating fish parasites. Specifically, the effect of bath treatment of monogenean Dactylogyrus infected goldfish (Carassius auratus) was investigated. […] Two days after treatment, the number of attached parasites in whole gills of each fish was counted. Reduction rate=(average survival of worms in the blank control group−average survival of worms in the administration group)/average survival of worms in the blank control group×100%.
# Neobenedenia melleni = assay: Antiparasitic activity of medicated feed in infected yellow croaker; type: in vivo, large yellow croaker (Larimichthys crocea); conditions: for Infectivity: Day 3
# Source text: The purpose of this experiment was to evaluate palatability and efficacy of (R)-praziquantel Form B (R-PZQ) against Monogenean trematode infection (Neobenedenia melleni) in large yellow croaker (Larimichthys crocea). Praziquantel (PZQ) was used as a positive control.
# All experimental yellow croakers (about 50-75 g BW/fish) were infected with Neobenedenia melleni, and the average infection intensity was 100-120 parasites/fish.
# Fish were fed 2 times a day (morning and afternoon) at up to 4% BW per day. The medicated granular feed was prepared as descripted under section “LIQUID COMPOSITIONS AND SOLID FORMULATIONS CONTAINING (R)-PRAZIQUANTEL FORM B FOR AQUACULTURE AND FISH”. Briefly, the powders of (R)-praziquantel Form B ([…]) or praziquantel (PZQ) were mixed with 4% (v/v) squid oil. The resulting squid oil was subsequently top-dressed onto commercial feed granules. Control feed was prepared by top-dressing with 4% squid oil onto the feed granules without containing the compounds.
# During treatment, amount and time to consume the medicated (or control) feed by the fishes in each group were observed and scored for palatability as poor (+) to excellent (+++++). Two days after dosing (Day 3), each fish was soaked in water individually and the number of parasites was recorded separately.
# [1] = highest concentration of 10 mg/L
# Method: Goldfish were acclimatized to 22° C. water (pH 7˜7.5, dissolved oxygen>5 mL/L) and were challenged with Dactylogyrus vastator. When infection rate and infection intensity reached 100% and over 10 parasite/whole gills of each fish within about 10 days, the fish were then treated with various concentrations of the (R)-praziquantel Form B or praziquantel for 48 hours by bath. Infected fish […] were used as a control group. 20 infected fish were placed per concentration for each treatment.
# [2] = Accelerated solid state stability of anhydrate (Form B) and hemihydrate (R)-praziquantel, open and closed condition; type: physicochemical
# Method: The Accelerated Solid State Stability of the Anhydrate (Form B) and Hemihydrate (R)-Praziquantel in an Open and Closed Condition […] The accelerated solid-state stability of the anhydrate and hemihydrate (R)-praziquantel was determined by storing approximately 1.0 g of the material in a glass dish at a) the anhydrate at 45° C./75% (RH), closed, for 3 months. and b) 45° C./75% Relative Humidity (RH), open exposure condition, for 3 months. The material was assayed by KF, TGA and HPLC for final content and degradation products.
# [3] = Physicochemical characterization of Form B (hygroscopicity)
# [4] = Long-term stability of (R)-praziquantel Form B API; type: physicochemical; conditions: for Appearance / Assay(Anhydrous basis) / Chiral Purity / Purity / Related Substances, largest single impurity (RRT = 0.60) / Related Substances, total impurities / XRPD Characterization / Water Content: 25° C., 60% relative humidity; for Water Content: Karl Fischer
# Method: Accurately weigh about 0.1-0.5 g of sample of Form B and transfer it to KF titrator container (aldehyde ketone Volumetric method), measure the samples according to USP<921>. The active pharmaceutical ingredient (API) of Form B was stored for 18 months under different storage conditions: 25° C. and 60% relative humidity, 30° C. and 65% relative humidity, and 40° C. and 75% relative humidity, in a sealed and open condition. […] In some embodiments, under various storage conditions the anhydrous API provided herein can be stable and water content controlled under 0.5% and monitored by KF for at least, or at least about, 3 months, 6 months, 9 months, 12 months, 18 months, 24 months and 36 months. For example, under storage conditions of 25° C. and 60% relative humidity, the tablets and API provided herein can be stable for at least, or at least about, 3 months, 6 months, 9 months, 12 months and 18 months.
# isolated rat atria = conditions: cited from earlier work
# [5] = rabbit, in vivo; cited from earlier work
# [6] = at the same dose level; cited from earlier work
# [7] = cited from earlier work
# [8] = medicated feed 75 mg/kg × 2 days
# [9] = Closed condition, 45° C./75% RH, 3 months
# [10] = Open, 45° C., RH75%, T3 (3 months)
# [11] = Opened condition, 45° C./75% RH, 3 months
# [12] = Sealed, 45° C., RH75%, T3 (3 months)
# [13] = medicated feed 37 mg/kg × 2 days
smiles,measurement,setting,value
"O=C(C1CCCCC1)N1CC(=O)N2CCc3ccccc3C2C1 (racemic) [Praziquantel, reference compound]",Infection rate,Dactylogyrus vastator,100%
same,Worm reduction,Dactylogyrus vastator,45%
same,Mortality,Neobenedenia melleni; [8],3%
same,Infectivity,Neobenedenia melleni; [8],54%
"O=C(C1CCCCC1)N1CC(=O)N2CCc3ccccc3[C@@H]2C1 [(R)-praziquantel Form B, (R)-2-(cyclohexanecarbonyl)-2,3,6,7-tetrahydro-1H-pyrazino[2,1-a] isoquinolin-4(11bH)-one]",Toxic effect in the treated fish,[1],no toxic effect
same,Degradation (HPLC),[2]; [9],no significant degradation observed
same,Water uptake (KF),[2]; [9],≤ 0.3%
same,Water content (KF),"[2]; Open, 45° C., RH75%, T0, listed as Anhydrate",1.30%
same,Water content (KF),"[2]; Open, 45° C., RH75%, T0, listed as anhydrate",1.3%
same,"Impurities by HPLC, RRT 0.6",[2]; [10],RRT 0.6: 0.04%
same,Water content (KF),"[2]; Open, 45° C., RH75%, T3 (3 months), listed as Anhydrate",2.50%
same,Water content (KF),"[2]; Open, 45° C., RH75%, T3 (3 months), listed as anhydrate",about 2.5%
same,Degradation (HPLC),[2]; [11],no significant degradation observed
same,Impurity peaks found (HPLC),[2]; [11],none of impurity peak found
same,Water content (KF),"[2]; Sealed, 45° C., RH75%, T0",0.24%
same,"Impurities by HPLC, RRT 0.6",[2]; [12],RRT 0.6: 0.04%
same,Water content (KF),[2]; [12],0.32%
same,Infection rate,Dactylogyrus vastator,100%
same,Worm reduction,Dactylogyrus vastator,98%
same,Hygroscopicity,[3],slightly hygroscopic
same,Mortality,Neobenedenia melleni; [13],0%
same,Infectivity,Neobenedenia melleni; [13],35%
same,Mortality,Neobenedenia melleni; [8],0%
same,Infectivity,Neobenedenia melleni; [8],6%
same,Antiparasitic efficacy,Neobenedenia melleni; oral treatment,dose dependent and superior to PZQ
same,Storage stability of API,"[4]; 18 months, 25° C./60% RH, 30° C./65% RH, 40° C./75% RH, sealed and open",good stability
same,Appearance,[4]; 18 M,White solid
same,Assay(Anhydrous basis),[4]; 18 M,101.00%
same,Chiral Purity,[4]; 18 M,100.00%
same,Purity,[4]; 18 M,99.90%
same,"Related Substances, largest single impurity (RRT = 0.60)",[4]; 18 M,RRT = 0.60: 0.03%
same,"Related Substances, total impurities",[4]; 18 M,0.11%
same,XRPD Characterization,[4]; 18 M,Conforms
same,Appearance,[4]; Initial (0 M),White solid
same,Assay(Anhydrous basis),[4]; Initial (0 M),99.80%
same,Chiral Purity,[4]; Initial (0 M),100.00%
same,Purity,[4]; Initial (0 M),99.90%
same,"Related Substances, largest single impurity (RRT = 0.60)",[4]; Initial (0 M),RRT = 0.60: 0.04%
same,"Related Substances, total impurities",[4]; Initial (0 M),0.10%
same,XRPD Characterization,[4]; Initial (0 M),Conforms
same,Water Content,[4]; 18 M,0.27%
same,Water Content,[4]; Initial (0 M),0.50%
O=C(C1CCCCC1)N1CC(=O)N2CCc3ccccc3[C@@H]2C1 [(R)-praziquantel],Cardiac toxicity,isolated rat atria,lower cardiac toxicity than (S)-praziquantel
same,Cardiac toxicity,[5],lower cardiac toxicity than (S)-praziquantel
same,Anthelmintic efficacy,[6],better than that of praziquantel
same,Observed side effects,"[7]; after oral administration (drowsiness, gastric nausea or photosensitivity rash)",relatively mild
same,Serious adverse reactions,[7]; after oral administration,No serious adverse reactions
"O=C(C1CCCCC1)N1CC(=O)N2CCc3ccccc3[C@H]2C1 [(S)-praziquantel, reference compound]",Anthelmintic efficacy,[6],almost no activity
"O.O=C(C1CCCCC1)N1CC(=O)N2CCc3ccccc3[C@@H]2C1.O=C(C1CCCCC1)N1CC(=O)N2CCc3ccccc3[C@@H]2C1 [Hemihydrate, reference compound]",Water content (KF),"[2]; Open, 45° C., RH75%, T0",2.80%
same,"Impurities by HPLC, RRT 0.6",[2]; [10],"RRT0.6: 0.17%,"
same,"Impurities by HPLC, RRT 0.9",[2]; [10],RRT0.9: 0.13%
same,Water content (KF),[2]; [10],2.50%
same,Impurity peaks found (HPLC),[2]; [11],two
same,Percent total impurities,[2]; [11],exceed 0.3%
